One experiment has as its target HLA-DRB1*03:01 (Homo sapiens, UniProt P01903+P01911, A100K/A102G/A103R/A169T/F55Y/I96L/K41T/L162R/M171V/P40S/Q125H/Q178H/Q39Y/R42S/S66N/T106N/T262R/W38E/Y61H). The experiment can be described thus: Peptide-HLA class II binding affinity. As to conditions: recombinant HLA class II α- and β-chains refolded with graded peptide, 48 h, 18°C; LOCI; ED50; read-out: Measured affinity.

Another experiment deals with T1, HLA-DRB3*01:01 (Homo sapiens, UniProt P01903+P79483).
T1 construct: made in house
The experiment can be described thus: Peptide-HLA class II binding affinity. As to conditions: recombinant HLA class II α- and β-chains refolded with graded peptide, 48 h, 18°C; LOCI; ED50; read-out: Measured affinity.

The next experiment addresses HLA-DRB1*07:01 (Homo sapiens, UniProt P01903+P01911, A100R/A102G/A103Q/D57E/D86V/E43K/F76Y/K127E/L162R/M171V/P40G/Q125H/Q99D/R33Q/R42Y/R54Q/S133A/S66F/T210M/V115G/Y107V/Y59L/Y89S). The experiment can be described thus: Peptide-HLA class II binding affinity. As to conditions: read-out: measured affinity.
The target in the next experiment is HLA-DRB1*15:01 (Homo sapiens, UniProt P01903+P01911). The experiment can be described thus: Peptide-HLA class II binding affinity. As to conditions: read-out: measured affinity.
For another experiment, the target named is HLA-DRB1*01:01 (Homo sapiens, UniProt P01903+P01911, A100R/D57E/F55L/F60I/F76Y/I96L/L162R/M171V/P40L/Q125E/R42F/V115G/Y59C). The experiment can be described thus: Peptide-HLA class II binding affinity. As to conditions: read-out: measured affinity.
Another experiment has as its system CD8^+ T cells. The experiment can be described thus: Ex vivo peptide-HLA class I tetramer staining. Type of experiment: cell-based, human. As to conditions: peptide-C*07:02 tetramer, responding donors.
Another experiment has as its target HLA-B*40:01 (Homo sapiens, UniProt P01889, A65T/A93T/A95T/D138N/D98Y/E176V/E69K/N87E/Q56L/Q94N/R180L/S121R/S35A/S48T/T167S/V36M/W171L/Y33H/Y91S). The experiment can be described thus: Peptide-HLA class I binding affinity. As to conditions: read-out: Measured affinity.
Another experiment deals with HLA-B*55:01 (Homo sapiens, UniProt P01889, A329T/C349S/D138N/D201E/E187T/E204Q/K202T/L119W/R155S/R180L/S121T/S35A/S48A/V127L/V306I/V36M/Y140L). The experiment can be described thus: Peptide-HLA class I binding affinity. As to conditions: read-out: Measured affinity.
In a further experiment the target is HLA-A*03:01 (Homo sapiens, UniProt P04439). The experiment can be described thus: biochemical.
The next experiment addresses HLA-B*08:01 (Homo sapiens, UniProt P01889, A93T/A95T/D138N/E176V/E187T/K202T/Q94N/R180D/S35A/V36M/Y33D/Y91F). The experiment can be described thus: biochemical.
The next experiment deals with HLA-C*06:02 (Homo sapiens, UniProt P10321, A176E/A330V/C350S/L171W/L180W/L218V/M285V/M309V/M331V/N104K/P208H/Q277E/Q291P/R121W/S101N/S123Y/S297R/T329A/T363A/V319A/V328M). The experiment can be described thus: Peptide-HLA class I binding affinity. As to conditions: read-out: Measured affinity.
In the next experiment the target is HLA-A*01:01 (Homo sapiens, UniProt P04439, A114D/A174V/A182V/D101N/D185E/E176A/E190D/L180R/Q94H/R68K/S129P/T187R/V100A/V91M/W191G). The experiment can be described thus: Peptide-HLA class I binding affinity. As to conditions: read-out: Measured affinity.
The next experiment concerns the target HLA-A*68:01 (Homo sapiens, UniProt P04439, A269V/D185E/E176V/E277Q/E87N/F33Y/G231S/I121M/I166T/I218V/L180W/L300P/L318F/N151K/P208A/P217A/Q86R/R169H/T345S). The experiment can be described thus: Peptide-HLA class I binding affinity. As to conditions: read-out: Measured affinity.
For the next experiment, the target named is HLA-DRB1*13:01 (Homo sapiens, UniProt P01903+P01911, A100E/A169T/K41T/L162R/M171V/P40S/Q125H/Q178H/Q39Y/Q99D/R42S/S66N/T262R/W38E/Y61H). The experiment can be described thus: Peptide-HLA class II binding affinity. As to conditions: read-out: measured affinity.
The target of the next experiment is HLA-B*13:02 (Homo sapiens, UniProt P01889, A65T/A93T/A95T/D138N/D201E/D98Y/E176V/E204Q/E69M/E70A/G107R/K202T/L105A/L119W/N104T/N87E/Q94N/R106L/R155S/R169L/R180L/S101N/S121T/S35A/S48T/V127L/V36M/Y140L/Y91S). The experiment can be described thus: Peptide-HLA class I binding affinity. As to conditions: read-out: Measured affinity.

Where no end group is shown, it is not given here.

Sequence of HLA-DRB1*03:01 (P01903 26-254 limits assumed, other chains not shown): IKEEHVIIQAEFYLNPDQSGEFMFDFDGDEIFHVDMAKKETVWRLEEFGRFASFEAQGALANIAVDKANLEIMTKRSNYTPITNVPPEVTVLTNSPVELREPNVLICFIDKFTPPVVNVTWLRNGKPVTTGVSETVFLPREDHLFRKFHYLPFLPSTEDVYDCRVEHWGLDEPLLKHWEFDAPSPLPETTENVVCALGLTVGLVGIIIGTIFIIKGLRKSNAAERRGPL
Experimental for CD8^+ T cells: To tetramerize the resulting peptide-HLA class I monomers, Streptavidin-PE or Streptavidin-APC (Biolegend, San Diego, USA) was sequentially added over 60 min at a 1∶4 molar ratio of Streptavidin to peptide-HLA-I monomers. PBMCs were resuspended in 25 µl PE- and APC-conjugated tetramer and incubated for 20 min at RT followed by 30 min incubation with anti-CD3-Pacific blue, anti-CD4-APC/Cy7, and anti-CD8-PerCP antibody (Biolegend, San Diego, USA).
Experimental for HLA-A*01:01: (§1) Peptide-HLA class I and II binding affinities were determined as previously described [44], [45].
(§2) Complex formation was detected using a proximity-based Luminescent Oxygen Channeling Immunoassay assay and the peptide concentration leading to half-saturation (ED50) was determined as previously described [44], [45]. Under the limited receptor concentrations used here, the ED50 reflects the affinity of the interaction.
Experimental for HLA-A*03:01: as §1, §2
Experimental for HLA-A*68:01: as §1, §2
Experimental for HLA-B*13:02: as §1, §2
Experimental for HLA-B*40:01: as §1, §2
Experimental for HLA-B*55:01: as §1, §2
Experimental for HLA-C*06:02: as §1, §2
Experimental for HLA-DRB1*01:01: as §1, §2
Experimental for HLA-DRB1*03:01: as §1, §2
Experimental for HLA-DRB1*07:01: as §1, §2
Experimental for HLA-DRB1*13:01: as §1, §2
Experimental for HLA-DRB1*15:01: as §1, §2
Experimental for HLA-DRB3*01:01: as §1, §2

Regarding `CC[C@H](C)[C@H](NC(=O)[C@H](CCCCN)NC(=O)[C@@H](NC(=O)[C@H](CCCNC(=N)N)NC(=O)CNC(=O)[C@H](CCCNC(=N)N)NC(=O)[C@H](CCCNC(=N)N)NC(=O)[C@@H](N)[C@@H](C)O)C(C)C)C(=O)N[C@@H](CC(=O)O)C(=O)N[C@@H](CCC(=O)O)C(=O)N[C@H](C(=O)N[C@@H](CO)C(=O)N[C@@H](CCCNC(=N)N)C(=O)N[C@@H](CCSC)C(=O)N[C@@H](Cc1ccccc1)C(=O)O)C(C)C` [IE2_356–370], the Kd at HLA-DRB1*03:01 came to 0.009 µM; at HLA-DRB3*01:01, 0.002 µM. For the compound `CC[C@H](C)[C@H](NC(=O)CNC(=O)[C@@H](N)CCCCN)C(=O)N[C@@H](CCC(N)=O)C(=O)N[C@H](C(=O)N[C@H](C(=O)N[C@@H](Cc1ccc(O)cc1)C(=O)N[C@H](C(=O)N[C@@H](CCCNC(=N)N)C(=O)N[C@@H](CC(N)=O)C(=O)N[C@@H](Cc1c[nH]cn1)C(=O)N[C@@H](CCC(=O)O)C(=O)N[C@H](C(=O)N[C@@H](CCCCN)C(=O)N[C@@H](CO)C(=O)O)C(C)C)[C@@H](C)O)[C@@H](C)CC)[C@@H](C)CC` [IE2_408–422], the Kd at HLA-DRB1*07:01 was 0.053 µM; at HLA-DRB1*15:01 it was 0.045 µM. For `CSCC[C@H](NC(=O)[C@H](CC(C)C)NC(=O)[C@H](Cc1ccccc1)NC(=O)[C@@H]1CCCN1C(=O)[C@@H](NC(=O)[C@H](CO)NC(=O)[C@H](CC(C)C)NC(=O)[C@H](C)N)[C@@H](C)O)C(=O)N[C@@H](CCC(=O)O)C(=O)N[C@@H](Cc1c[nH]cn1)C(=O)N[C@H](C(=O)N[C@@H](CCSC)C(=O)N1CCC[C@H]1C(=O)N[C@H](C(=O)N[C@H](C(=O)O)[C@@H](C)O)C(C)C)[C@@H](C)O` [IE2_438–452], at HLA-DRB1*01:01, the Kd was 0.006 µM. Take CRVLCCYVL [IE1_309–317]: the “TMRI (%)” value in the experiment on CD8^+ T cells was 0.8–8.0%. In the case of EEAIVAYTL [IE1_381–389], on HLA-B*40:01, the Kd was found to be 0.013 µM.

Turning to FLMEHTMPVTHPPEV [IE2_443–457], the Kd on HLA-DRB1*01:01 turned out to be 0.002 µM. With FPKTTNGCSQA [IE1_221–231], the Kd on HLA-B*55:01 came to 0.138 µM.

Consider KEVNSQLSL [IE1_42–50/IE2_42–50], for which the Kd at HLA-B*40:01 was 0.025 µM.

KLGGALQAK [IE1_184–192] returned a Kd at HLA-A*03:01 of 0.216 µM. As for QIKVRVDM [IE1_88–95], the Kd is 0.579 µM on HLA-B*08:01 and 0.003 µM on HLA-C*06:02. As for QIKVRVDMV [IE1_88–96], the Kd at HLA-B*08:01 was 0.994 µM. RIKEHMLKK [IE1_99–107] came in with a Kd at HLA-A*03:01 of 0.542 µM.

As for TSDACMMTMY [IE1_290–299], the Kd at HLA-A*01:01 turned out to be 0.009 µM. With TTFLQTMLR [IE1_33–41/IE2_33–41], the Kd at HLA-A*68:01 stood at 0.001 µM.

With VKQIKVRVDMVRHRI [IE1_86–100], the Kd at HLA-DRB1*03:01 came out at 0.004 µM; on HLA-DRB3*01:01, 0.109 µM.

VRHRIKEHMLKKYTQ [IE1_96–110]: the Kd on HLA-DRB1*13:01 is 0.002 µM. VRVDMVRHRIKEHML [IE1_91–105]: the Kd at HLA-DRB1*03:01 is 0.01 µM; on HLA-DRB3*01:01, > 5 µM; on HLA-DRB1*13:01, 0.002 µM. For YILGADPLRV [IE1_354-363], the Kd at HLA-B*13:02 amounted to 0.087 µM.

The values above are taken from paper PMC3997423, “Identification and HLA-Tetramer-Validation of Human CD4^+ and CD8^+ T Cell Responses against HCMV Proteins IE1 and IE2” (PLoS ONE, 2014).
